# Assay results: PMC9681850, “Structural basis of synthetic agonist activation of the nuclear receptor REV-ERB” (Nature Communications, 2022)
# Values joined by “and” are separate entries in the source; they are usually repeats but may differ in a detail not shown here. Equal entries are not always repeated.
# Columns and labels:
# [1] = system: 43 targets (GPCRs, ion channels, transporters, and other drug targets); test: NIMH PDSP radioligand displacement panel; type: binding; settings: of the 43 targets assessed
# From the text: (§1) We assessed the specificity of STL1267 using both in house nuclear receptor Gal4-NR reporter assays and the NIMH Psychoactive Drug Screening Program (PDSP) assays. We assessed the specificity of STL1267 in the PDSP’s radioligand displacement assays, screening for binding to off-target GPCRs, ion channels, transporters, and other drug targets (Table S1). Of the 43 targets assessed in this panel, we observed no detectable binding in 41 of them. […] Additional assessment in serotonin transporter and kappa opioid receptor activity in a functional assay may be warranted to determine absolute specificity. […]
# (§2) Receptor RLBA Ki Receptor activity
# (§3) Suppl ementary Tabl e 1. Speci fi ci ty of STL1267. […]
# [2] = target: T1, 5-HT1A (Homo sapiens, UniProt P08908); test: PDSP radioligand binding assay; settings: read-out: RLBA Ki
# T1 construct: NIMH Psychoactive Drug Screening Program (assay performed there)
# From the text: as §2, §3
# [3] = target: T2, 5-HT1B (Homo sapiens, UniProt P28222); test: PDSP radioligand binding assay; settings: read-out: RLBA Ki
# T2 construct: NIMH Psychoactive Drug Screening Program (assay performed there)
# From the text: as §2, §3
# [4] = target: T3, 5-HT1D (Homo sapiens, UniProt P28221); test: PDSP radioligand binding assay; settings: read-out: RLBA Ki
# T3 construct: NIMH Psychoactive Drug Screening Program (assay performed there)
# From the text: as §2, §3
# [5] = target: T4, 5-HT1E (Homo sapiens, UniProt P28566); test: PDSP radioligand binding assay; settings: read-out: RLBA Ki
# T4 construct: NIMH Psychoactive Drug Screening Program (assay performed there)
# From the text: as §2, §3
# [6] = target: T5, 5-HT2A (Homo sapiens, UniProt P28223); test: PDSP radioligand binding assay; settings: read-out: RLBA Ki
# T5 construct: NIMH Psychoactive Drug Screening Program (assay performed there)
# From the text: as §2, §3
# [7] = target: T6, 5-HT2B (Homo sapiens, UniProt P41595); test: PDSP radioligand binding assay; settings: read-out: RLBA Ki
# T6 construct: NIMH Psychoactive Drug Screening Program (assay performed there)
# From the text: as §2, §3
# [8] = target: T7, 5-HT2C (Homo sapiens, UniProt P28335); test: PDSP radioligand binding assay; settings: read-out: RLBA Ki
# T7 construct: NIMH Psychoactive Drug Screening Program (assay performed there)
# From the text: as §2, §3
# [9] = target: T8, 5-HT3 (Homo sapiens, UniProt P46098); test: PDSP radioligand binding assay; settings: read-out: RLBA Ki
# T8 construct: NIMH Psychoactive Drug Screening Program (assay performed there)
# From the text: as §2, §3
# [10] = target: T9, 5-HT5A (Homo sapiens, UniProt P47898); test: PDSP radioligand binding assay; settings: read-out: RLBA Ki
# T9 construct: NIMH Psychoactive Drug Screening Program (assay performed there)
# From the text: as §2, §3
# [11] = target: T10, 5-HT6 (Homo sapiens, UniProt P50406); test: PDSP radioligand binding assay; settings: read-out: RLBA Ki
# T10 construct: NIMH Psychoactive Drug Screening Program (assay performed there)
# From the text: as §2, §3
# [12] = target: T11, 5-HT7A (Homo sapiens, UniProt P34969); test: PDSP radioligand binding assay; settings: read-out: RLBA Ki
# T11 construct: NIMH Psychoactive Drug Screening Program (assay performed there)
# From the text: as §2, §3
# [13] = target: T12, Alpha1A (Homo sapiens, UniProt P35348); test: PDSP radioligand binding assay; settings: read-out: RLBA Ki
# T12 construct: NIMH Psychoactive Drug Screening Program (assay performed there)
# From the text: as §2, §3
# [14] = target: T13, Alpha1B (Homo sapiens, UniProt P35368); test: PDSP radioligand binding assay; settings: read-out: RLBA Ki
# T13 construct: NIMH Psychoactive Drug Screening Program (assay performed there)
# From the text: as §2, §3
# [15] = target: T14, Alpha1D (Homo sapiens, UniProt P25100); test: PDSP radioligand binding assay; settings: read-out: RLBA Ki
# T14 construct: NIMH Psychoactive Drug Screening Program (assay performed there)
# From the text: as §2, §3
# [16] = target: T15, Alpha2A (Homo sapiens, UniProt P08913); test: PDSP radioligand binding assay; settings: read-out: RLBA Ki
# T15 construct: NIMH Psychoactive Drug Screening Program (assay performed there)
# From the text: as §2, §3
# [17] = target: T16, Alpha2C (Homo sapiens, UniProt P18825); test: PDSP radioligand binding assay; settings: read-out: RLBA Ki
# T16 construct: NIMH Psychoactive Drug Screening Program (assay performed there)
# From the text: as §2, §3
# [18] = target: T17, Beta1 (Homo sapiens, UniProt P08588); test: PDSP radioligand binding assay; settings: read-out: RLBA Ki
# T17 construct: NIMH Psychoactive Drug Screening Program (assay performed there)
# From the text: as §2, §3
# [19] = target: Beta2 (Homo sapiens, UniProt P07550); test: PDSP radioligand binding assay; settings: read-out: RLBA Ki
# From the text: as §2, §3
# [20] = target: Beta3 (Homo sapiens, UniProt P13945); test: PDSP radioligand binding assay; settings: read-out: RLBA Ki
# From the text: as §2, §3
# [21] = target: D2 (Homo sapiens, UniProt P14416); test: PDSP radioligand binding assay; settings: read-out: RLBA Ki
# From the text: as §2, §3
# [22] = target: D3 (Homo sapiens, UniProt P35462); test: PDSP radioligand binding assay; settings: read-out: RLBA Ki
# From the text: as §2, §3
# [23] = target: D4 (Homo sapiens, UniProt P21917); test: PDSP radioligand binding assay; settings: read-out: RLBA Ki
# From the text: as §2, §3
# [24] = target: D5 (Homo sapiens, UniProt P21918); test: PDSP radioligand binding assay; settings: read-out: RLBA Ki
# From the text: as §2, §3
# [25] = target: DAT (Homo sapiens, UniProt Q01959); test: PDSP radioligand binding assay; settings: read-out: RLBA Ki
# From the text: as §2, §3
# [26] = target: DOR (Homo sapiens, UniProt P41143); test: PDSP radioligand binding assay; settings: read-out: RLBA Ki
# From the text: as §2, §3
# [27] = target: GABAA; test: PDSP radioligand binding assay; settings: read-out: RLBA Ki
# From the text: as §2, §3
# [28] = target: H1 (Homo sapiens, UniProt P35367); test: PDSP radioligand binding assay; settings: read-out: RLBA Ki
# From the text: as §2, §3
# [29] = target: H2 (Homo sapiens, UniProt P25021); test: PDSP radioligand binding assay; settings: read-out: RLBA Ki
# From the text: as §2, §3
# [30] = target: H4 (Homo sapiens, UniProt Q9H3N8); test: PDSP radioligand binding assay; settings: read-out: RLBA Ki
# From the text: as §2, §3
# [31] = target: M1 (Homo sapiens, UniProt P11229); test: PDSP radioligand binding assay; settings: read-out: RLBA Ki
# From the text: as §2, §3
# [32] = target: M2 (Homo sapiens, UniProt P08172); test: PDSP radioligand binding assay; settings: read-out: RLBA Ki
# From the text: as §2, §3
# [33] = target: M3 (Homo sapiens, UniProt P20309); test: PDSP radioligand binding assay; settings: read-out: RLBA Ki
# From the text: as §2, §3
# [34] = target: M5 (Homo sapiens, UniProt P08912); test: PDSP radioligand binding assay; settings: read-out: RLBA Ki
# From the text: as §2, §3
# [35] = target: MOR (Homo sapiens, UniProt P35372); test: PDSP radioligand binding assay; settings: read-out: RLBA Ki
# From the text: as §2, §3
# [36] = target: NET (Homo sapiens, UniProt P23975); test: PDSP radioligand binding assay; settings: read-out: RLBA Ki
# From the text: as §2, §3
# [37] = target: PBR (Rattus norvegicus, UniProt P16257); test: PDSP radioligand binding assay; settings: read-out: RLBA Ki
# From the text: as §2, §3
# [38] = target: kappa opioid receptor (KOR) (Homo sapiens, UniProt P41145); test: PDSP radioligand binding assay; settings: secondary full displacement curve, read-out: RLBA Ki
# From the text: as §1, §2, §3
# [39] = target: serotonin transporter (SERT) (Homo sapiens, UniProt P31645); test: PDSP radioligand binding assay; settings: secondary full displacement curve, read-out: RLBA Ki
# From the text: as §1, §2, §3
# [40] = system: REV-ERBα; parameters: method as in ref 21 = [21]; 21. Bourotte, et al. Derivatives of 6-substituted triazolopyridazines as Rev-Erb agonists. (ed. States, U.) (United States, 2012).; settings: enhancement of REV-ERBα/NCoR interaction, biochemical or cell-based assays; cited from earlier work
# Sequence of serotonin transporter (SERT) (P31645 whole entry, species assumed): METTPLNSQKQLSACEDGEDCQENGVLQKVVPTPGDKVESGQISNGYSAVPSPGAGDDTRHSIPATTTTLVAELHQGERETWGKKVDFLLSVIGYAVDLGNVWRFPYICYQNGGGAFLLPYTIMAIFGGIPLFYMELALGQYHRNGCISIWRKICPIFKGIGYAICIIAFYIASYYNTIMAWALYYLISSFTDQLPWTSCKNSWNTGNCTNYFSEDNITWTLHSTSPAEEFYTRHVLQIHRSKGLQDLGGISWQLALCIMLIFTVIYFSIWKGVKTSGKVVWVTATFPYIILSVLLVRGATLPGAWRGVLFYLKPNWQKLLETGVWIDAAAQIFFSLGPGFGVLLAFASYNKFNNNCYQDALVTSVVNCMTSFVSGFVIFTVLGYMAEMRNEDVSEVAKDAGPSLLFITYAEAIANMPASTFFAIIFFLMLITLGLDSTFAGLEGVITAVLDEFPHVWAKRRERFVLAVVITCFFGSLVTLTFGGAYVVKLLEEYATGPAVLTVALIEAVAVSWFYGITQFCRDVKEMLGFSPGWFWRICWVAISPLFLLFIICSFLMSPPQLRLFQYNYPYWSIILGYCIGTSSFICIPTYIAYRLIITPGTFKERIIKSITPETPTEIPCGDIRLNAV
# Sequence of M3 (P20309 whole entry): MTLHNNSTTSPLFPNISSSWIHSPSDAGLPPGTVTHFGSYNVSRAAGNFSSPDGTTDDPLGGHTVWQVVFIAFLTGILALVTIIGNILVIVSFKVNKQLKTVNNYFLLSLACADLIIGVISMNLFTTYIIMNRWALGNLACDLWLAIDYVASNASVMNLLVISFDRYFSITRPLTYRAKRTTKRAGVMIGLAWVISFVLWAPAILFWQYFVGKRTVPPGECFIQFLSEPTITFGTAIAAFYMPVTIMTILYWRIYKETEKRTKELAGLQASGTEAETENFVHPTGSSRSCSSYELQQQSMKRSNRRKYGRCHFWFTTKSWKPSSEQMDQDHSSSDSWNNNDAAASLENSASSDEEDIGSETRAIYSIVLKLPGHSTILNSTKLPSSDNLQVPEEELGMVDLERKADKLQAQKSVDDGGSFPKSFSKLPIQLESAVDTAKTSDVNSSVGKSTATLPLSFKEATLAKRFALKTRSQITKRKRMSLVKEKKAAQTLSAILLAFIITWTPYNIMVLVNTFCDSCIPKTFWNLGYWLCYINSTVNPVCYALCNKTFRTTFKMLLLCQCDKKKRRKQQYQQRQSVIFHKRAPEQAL
# T6 sequence (P41595 whole entry, species assumed): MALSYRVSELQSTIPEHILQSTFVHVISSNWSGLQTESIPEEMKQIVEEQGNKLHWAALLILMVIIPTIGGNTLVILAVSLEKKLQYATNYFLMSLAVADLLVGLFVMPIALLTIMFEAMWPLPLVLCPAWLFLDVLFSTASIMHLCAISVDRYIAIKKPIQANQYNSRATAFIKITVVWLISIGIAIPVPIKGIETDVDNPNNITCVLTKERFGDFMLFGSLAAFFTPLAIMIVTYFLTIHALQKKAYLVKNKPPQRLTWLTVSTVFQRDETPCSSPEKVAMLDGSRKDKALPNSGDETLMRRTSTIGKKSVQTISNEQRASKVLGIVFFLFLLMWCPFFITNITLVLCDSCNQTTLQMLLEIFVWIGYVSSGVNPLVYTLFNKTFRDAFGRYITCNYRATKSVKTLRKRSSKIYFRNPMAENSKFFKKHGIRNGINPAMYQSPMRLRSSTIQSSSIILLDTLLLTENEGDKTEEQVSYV
# Sequence of Beta2 (P07550 whole entry): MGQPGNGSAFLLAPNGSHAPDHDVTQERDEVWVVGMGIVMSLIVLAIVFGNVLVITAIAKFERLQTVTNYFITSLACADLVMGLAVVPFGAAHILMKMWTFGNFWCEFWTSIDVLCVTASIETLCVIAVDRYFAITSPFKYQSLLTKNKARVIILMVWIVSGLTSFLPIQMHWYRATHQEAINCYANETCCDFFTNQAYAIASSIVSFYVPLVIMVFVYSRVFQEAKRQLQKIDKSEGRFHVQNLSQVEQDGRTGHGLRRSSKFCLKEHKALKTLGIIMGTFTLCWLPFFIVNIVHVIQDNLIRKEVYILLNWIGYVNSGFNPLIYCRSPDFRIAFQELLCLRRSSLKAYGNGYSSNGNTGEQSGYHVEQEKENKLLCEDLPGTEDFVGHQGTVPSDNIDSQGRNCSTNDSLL
# Sequence of MOR (P35372 whole entry): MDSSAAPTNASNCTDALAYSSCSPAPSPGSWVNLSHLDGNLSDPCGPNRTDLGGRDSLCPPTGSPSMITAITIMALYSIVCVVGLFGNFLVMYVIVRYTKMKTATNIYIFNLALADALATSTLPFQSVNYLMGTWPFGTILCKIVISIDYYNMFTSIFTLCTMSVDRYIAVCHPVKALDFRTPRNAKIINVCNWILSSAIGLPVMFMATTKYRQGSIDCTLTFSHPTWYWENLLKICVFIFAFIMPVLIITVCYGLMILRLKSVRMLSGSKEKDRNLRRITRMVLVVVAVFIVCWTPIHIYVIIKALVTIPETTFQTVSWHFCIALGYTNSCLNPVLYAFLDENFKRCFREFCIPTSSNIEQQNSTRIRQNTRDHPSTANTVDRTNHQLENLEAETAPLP
# T9 sequence (P47898 whole entry, species assumed): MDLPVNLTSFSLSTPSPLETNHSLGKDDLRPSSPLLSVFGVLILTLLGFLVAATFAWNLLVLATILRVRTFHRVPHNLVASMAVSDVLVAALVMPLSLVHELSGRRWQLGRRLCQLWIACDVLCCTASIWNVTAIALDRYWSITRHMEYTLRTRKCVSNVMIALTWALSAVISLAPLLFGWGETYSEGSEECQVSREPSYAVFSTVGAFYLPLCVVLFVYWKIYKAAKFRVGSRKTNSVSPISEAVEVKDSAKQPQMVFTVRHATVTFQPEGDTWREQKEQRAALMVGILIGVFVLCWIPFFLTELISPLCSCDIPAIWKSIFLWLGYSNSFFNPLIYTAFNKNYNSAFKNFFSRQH
# Sequence of M5 (P08912 whole entry): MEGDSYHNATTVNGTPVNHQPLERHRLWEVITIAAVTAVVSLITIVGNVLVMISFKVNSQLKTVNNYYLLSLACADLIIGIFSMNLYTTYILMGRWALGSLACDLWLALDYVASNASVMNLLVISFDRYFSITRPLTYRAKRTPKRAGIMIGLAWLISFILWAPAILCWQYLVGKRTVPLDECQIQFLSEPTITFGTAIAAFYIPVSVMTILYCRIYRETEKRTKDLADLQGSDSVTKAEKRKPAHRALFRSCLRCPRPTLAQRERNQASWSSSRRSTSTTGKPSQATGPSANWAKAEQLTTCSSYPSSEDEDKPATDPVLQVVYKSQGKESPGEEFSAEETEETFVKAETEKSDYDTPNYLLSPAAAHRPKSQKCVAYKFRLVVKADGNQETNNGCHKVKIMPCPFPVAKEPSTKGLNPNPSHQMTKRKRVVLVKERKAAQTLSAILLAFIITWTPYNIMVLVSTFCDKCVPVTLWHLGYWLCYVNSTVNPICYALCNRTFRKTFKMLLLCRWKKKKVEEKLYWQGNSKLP
# T8 sequence (P46098 24-478, species assumed): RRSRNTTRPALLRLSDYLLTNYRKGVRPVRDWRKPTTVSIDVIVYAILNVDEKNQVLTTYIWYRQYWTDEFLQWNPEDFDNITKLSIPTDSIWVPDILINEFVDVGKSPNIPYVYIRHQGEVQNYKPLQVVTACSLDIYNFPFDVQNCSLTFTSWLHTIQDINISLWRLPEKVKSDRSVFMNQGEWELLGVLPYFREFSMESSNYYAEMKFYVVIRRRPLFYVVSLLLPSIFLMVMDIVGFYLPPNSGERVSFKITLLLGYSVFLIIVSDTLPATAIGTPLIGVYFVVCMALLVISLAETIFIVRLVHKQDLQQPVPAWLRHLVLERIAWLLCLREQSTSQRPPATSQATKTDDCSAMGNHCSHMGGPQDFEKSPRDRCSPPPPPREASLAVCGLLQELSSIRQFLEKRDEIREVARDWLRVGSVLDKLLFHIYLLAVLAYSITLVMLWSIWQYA
# T13 sequence (P35368 whole entry): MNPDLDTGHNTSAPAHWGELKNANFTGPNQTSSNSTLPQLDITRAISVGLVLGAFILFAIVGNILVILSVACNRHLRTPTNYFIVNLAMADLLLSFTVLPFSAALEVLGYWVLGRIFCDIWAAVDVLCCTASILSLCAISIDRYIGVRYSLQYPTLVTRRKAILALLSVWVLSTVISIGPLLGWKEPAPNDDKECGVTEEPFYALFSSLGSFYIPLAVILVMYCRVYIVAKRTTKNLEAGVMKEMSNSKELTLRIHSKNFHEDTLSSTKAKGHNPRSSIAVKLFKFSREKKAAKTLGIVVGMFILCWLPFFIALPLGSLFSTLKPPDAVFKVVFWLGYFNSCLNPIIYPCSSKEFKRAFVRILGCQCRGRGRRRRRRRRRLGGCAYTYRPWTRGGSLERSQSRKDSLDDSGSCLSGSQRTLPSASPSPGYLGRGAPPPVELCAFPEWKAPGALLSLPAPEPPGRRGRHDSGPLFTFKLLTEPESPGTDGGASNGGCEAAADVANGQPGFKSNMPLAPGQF
# T10 sequence (P50406 whole entry, species assumed): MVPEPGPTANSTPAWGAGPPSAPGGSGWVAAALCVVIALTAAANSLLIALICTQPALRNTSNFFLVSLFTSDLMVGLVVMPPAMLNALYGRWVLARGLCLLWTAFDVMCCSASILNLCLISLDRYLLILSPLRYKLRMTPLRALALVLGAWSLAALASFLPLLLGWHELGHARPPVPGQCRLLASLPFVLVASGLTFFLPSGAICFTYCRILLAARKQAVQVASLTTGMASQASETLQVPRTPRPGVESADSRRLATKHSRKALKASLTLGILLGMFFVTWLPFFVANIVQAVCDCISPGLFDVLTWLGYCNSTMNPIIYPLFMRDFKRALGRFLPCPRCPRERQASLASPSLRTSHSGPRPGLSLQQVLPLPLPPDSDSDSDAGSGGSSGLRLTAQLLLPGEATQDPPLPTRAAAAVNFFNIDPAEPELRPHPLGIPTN
smiles,measurement,setting,value
Clc1nnc2ccc(Oc3ccccc3-c3ccccc3)nn12 [STL1267],number of targets with no detectable binding,[1],41
same,Ki,[2],> 10 µM
same,Ki,[3],> 10 µM
same,Ki,[4],> 10 µM
same,Ki,[5],> 10 µM
same,Ki,[6],> 10 µM
same,Ki,[7],> 10 µM
same,Ki,[8],> 10 µM
same,Ki,[9],> 10 µM
same,Ki,[10],> 10 µM
same,Ki,[11],> 10 µM
same,Ki,[12],> 10 µM
same,Ki,[13],> 10 µM
same,Ki,[14],> 10 µM
same,Ki,[15],> 10 µM
same,Ki,[16],> 10 µM
same,Ki,[17],> 10 µM
same,Ki,[18],> 10 µM
same,Ki,[19],> 10 µM
same,Ki,[20],> 10 µM
same,Ki,[21],> 10 µM
same,Ki,[22],> 10 µM
same,Ki,[23],> 10 µM
same,Ki,[24],> 10 µM
same,Ki,[25],> 10 µM
same,Ki,[26],> 10 µM
same,Ki,[27],> 10 µM
same,Ki,[28],> 10 µM
same,Ki,[29],> 10 µM
same,Ki,[30],> 10 µM
same,Ki,[31],> 10 µM
same,Ki,[32],> 10 µM
same,Ki,[33],> 10 µM
same,Ki,[34],> 10 µM
same,Ki,[35],> 10 µM
same,Ki,[36],> 10 µM
same,Ki,[37],> 10 µM
same,Ki,[38],0.72 µM
same,Ki,[39],2 to 4 µM and 2.1 µM
same,potency,[40],0.1 to 0.3 µM
